Data reported in patent publication US9125879B2, “Composition containing a quinoa extract for dermatological use” (LABORATOIRES EXPANSCIENCE, priority 2006, dated 2015).

Columns and labels:
Format in all cases: cell-based
[1] = system: keratinocytes; test: Proliferation of keratinocytes by the MTT method
Protocol: c. Study of the Proliferation of Keratinocytes by the MTT Method
On D0, the keratinocytes are sown in a KGM2 medium day1, the cells are treated with trans-retinoic acid (ATRA) at 1 μM or quinoa peptides with 0.05% and 0.1% DM for 24 and 48 hours. At the end of the treatment, cell viability is quantified by an MTT test: after 3 hours of contact with MTT, the formed formazan crystals are solubilized by DMSO and the optical density, proportional to the amount of metabolically active cells therefore live cells, is read at 570 nm against the blank (wells without any cells).

[2] = system: collagen I; test: Genic expression of collagen I in fibroblasts (real time quantitative PCR); conditions: 5 ng/mL, 48 hours
Source text: (§1) b. Study of the Effect of Quinoa Peptides on the Expression of Genes Coding for Collagen I and Collagen III and Elastin by RT-PCR
(§2) b.1. Principle of Real Time Quantitative PCR:
(§3) Real time quantitative PCR or QRT-PCR (Quantitative Real Time Polymerase Chain Reaction) is a molecular biology method, which allows specific and quantitative measurement of the expression of genes of interest by amplification. Quantification is based on tracking the amplification of genes in real time by using as a reporter system, SYBR Green technology: a molecule with fluorescent properties which is inserted inside the double strand DNA. PCR takes place in a succession of temperature cycles according to 3 steps: • Denaturation: separation of 2 DNA strands. • Hybridization: recognition of a DNA sequence corresponding to a target gene by means of specific primers. • Extension: of the sequence of interest by a action of a polymerase.
(§4) DNA amounts are compared in the exponential part, moment during which the increase in the DNA amount is proportional to the initial matrix amount.
(§5) On D0, the fibroblasts were sown on 6-well plates in RPMI medium added with 10% SVF. On D1, the fibroblasts were treated with TGF β1 at 5 ng/mL or the quinoa oil concentrate with 0.005% and 0.01% DM in RPMI medium with 1% SVF for 48 hours. At the end of the treatment of the cells, the total […] were extracted (extraction kit RNeasy kit MiniKit; Qiagen) and then assayed quantitatively in minichips by means of an Experion system (Experion RNA StdSens kit; Biorad). Total RNAs are then back-transcribed into cDNA (iScript cDNA Synthesis kit; Biorad). Finally the neo-synthesized cDNAs relative to the genes of interest (collagen I, collagen III, elastin) or to reference genes (HPRT, GAPDH, YWHAZ, beta actin=normalizers) were selectively amplified with real time PCR (iQ5, Biorad) by using specific primers of the target sequences.
(§6) The expression of the reference genes is analyzed in the same samples as those for which expression of the genes of interest is evaluated in order to normalize the results and to make sure that they are actually the results of the effect of the treatment by quinoa oil concentrate.
(§7) b.3. Analysis of the Results:
(§8) The variation in the number of copies of the genes of interest during the treatment is then calculated according to the following formula: DDCt=control DCt−treatment DCt.
(§9) Finally, the relative amount or the expression level of the genes of interest, normalized by the expression level of the reference genes in the untreated and treated samples is obtained by the formula: QR=2DDCt

[3] = system: collagen III; test: Genic expression of collagen III in fibroblasts (real time quantitative PCR); conditions: 5 ng/mL, 48 hours
Source text: as §1, §2, §3, §4, §5, §6, §7, §8, §9

[4] = system: elastin; test: Genic expression of elastin in fibroblasts (real time quantitative PCR); conditions: 5 ng/mL, 48 hours
Source text: as §1, §2, §3, §4, §5, §6, §7, §8, §9

[5] = system: α-3 chain of laminin 5; test: Genic expression of the α-3 chain of laminin 5 in keratinocytes (RT-PCR); conditions: 5 ng/ml, 48 hours
Protocol: (§10) a. Study of the Effect of Quinoa Peptides on the Expression of Genes Coding for Laminin 5 and PPM-9 by RT-PCR • Principle of real time quantitative PCR: cf. Example 4 • Procedure:
(§11) On day 0, the keratinocytes were sown in 24-well plates in a KGM-2 medium. On D1, the cells were treated with TGFβ1 at 5 ng/mL or quinoa peptides with 0.05 and 0.1% DM for 48 hours. At the end of the treatment of the cells, the total RNAs were extracted (RNeasy MiniKit extraction kit; Qiagen) and then quantitatively assayed in minichips by means of the Experion system (Experion RNA StdSens kit; Biorad). The total RNAs were then backtranscribed into cDNA (iScript cDNA Synthesis kit; Biorad). Finally, the neo-synthesized cDNAs relative to the gene of interest (genes coding for the 3 chains making up laminin 5: […] and MMP-9) or to the reference genes (HPRT, GAPDH, YWHEZ, beta actin=normalizers) were selectively amplified by real time PCR (iQ5, Biorad) by using specific primers of the target sequences.

[6] = system: β-3 chain of laminin 5; test: Genic expression of the β-3 chain of laminin 5 in keratinocytes (RT-PCR); conditions: 5 ng/ml, 48 hours
Protocol: as §10, §11

[7] = system: γ-2 chain of laminin 5; test: Genic expression of the γ-2 chain of laminin 5 in keratinocytes (RT-PCR); conditions: 5 ng/ml, 48 hours
Protocol: as §10, §11

[8] = system: MMP-9; test: Genic expression of MMP-9 in keratinocytes (RT-PCR); conditions: 5 ng/ml, 48 hours
Protocol: as §10, §11

[9] = system: MMP-9; test: Dosage of MMP-9 protein secreted by keratinocytes (ELISA); conditions: 5 ng/ml, supernatants of keratinocytes
Protocol: d. Dosage of MMP-9 Secreted by Keratinocytes.
The keratinocytes were sown in 24-well plates; after 24 hours in incubation at 37° C., with 5% CO2, the cells were treated with quinoa peptides with 0.05% and 0.01% DM. TGFβ tested at 5 ng/mL was used as a positive control. After 48 and 72 hours of treatment, the amount of MMP-9 secreted by the cells was assayed in the culture supernatant by means of an ELISA kit (R&D Systems), according to the procedure recommended by the supplier. In parallel, the amount of living cells per well was determined by a colorimetric neutral red test: optical density OD, proportional to the amount of living cells, is read at 570 nm.
The amount of MMP-9 is expressed in living cells: (ng/mL)/OD570 (optical density at 570 nm) MTT.

[10] = system: KGF; test: Dosage of KGF secreted by fibroblasts (ELISA); conditions: for % A (increase) / Amount of KGF: 5 ng/ml, supernatants of fibroblasts
Protocol: e. Dosage of KGF Secreted by Fibroblasts
The fibroblasts were sown in a 24-well plate in RPMI at 1% SVF; after 24 hours of incubation at 37° C., with […], the cells were treated with quinoa peptides with 0.05% and 0.01% DM. IL1α (Sigma) at 100 ng/mL was used as a positive control. After 24 and 48 hours of treatment, the amount of KGF salted out by the fibroblasts was assayed with an ELISA kit (R&D Systems), according to the procedure recommended by the supplier. In parallel, the amount of living cells per well was determined by a colorimetric neutral red test: optical density OD, proportional to the amount of living cells, is read at 570 nm. In parallel, the amount of living cells per well was determined by an MTT colorimetric test: optical density OD, proportional to the amount of living cells, is read at 570 nm.
The amount of KGF is expressed by the living cells: pg/mL/OD570 MTT.

CC1=C(/C=C/C(C)=C/C=C/C(C)=C/C(=O)O)C(C)(C)CCC1 [ATRA, trans-retinoic acid]
Mean OD570 (MTT) ([1]; 1 μM): 1.361
% of proliferation ([1]; 1 μM, negative control = 100): 136%
proliferation rate induced ([1]; positive control): +36%

TGFβ: growth factor used as a positive control at 5 ng/mL
% of induction [2]: 87%
Mean dCt [2]: −3.2
QR [2]: 1.87
ddCt [2]: 0.9
% of induction [3]: 427%
Mean dCt [3]: 2.51
QR [3]: 5.27
ddCt [3]: 2.4
% of induction [4]: 435%
QR [4]: 5.35
dCt [4]: 2.16
ddCt [4]: 2.4
% of induction [5]: 1193%
Mean dCt [5]: −0.944
QR [5]: 12.93
ddCt [5]: 3.69
QR ([5]; listed as TGF-β1): ~12
% of induction [6]: 420%
Mean dCt [6]: −0.944
QR [6]: 5.20
ddCt [6]: 2.38
QR ([6]; listed as TGF-β1): ~5
% of induction [7]: 1676%
Mean dCt [7]: −1.925
QR [7]: 17.76
ddCt [7]: 4.15
QR ([7]; listed as TGF-β1): ~17
% of induction [8]: 807%
Mean dCt [8]: 3.07
QR [8]: 8
ddCt [8]: 3.01
% A (increase) ([9]; treatment 48 h): 372%
Amount of MMP-9 ([9]; treatment 48 h): 11.604 ng/mL/OD neutral red
% A (increase) ([9]; treatment 72 h): 568%
Amount of MMP-9 ([9]; treatment 72 h): 14.746 ng/mL/OD neutral red
% A (increase) ([10]; treatment 24 h): 431%
Amount of KGF ([10]; treatment 24 h): 147.886 pg/mL/OD neutral red
% A (increase) ([10]; treatment 48 h): 336%
Amount of KGF ([10]; treatment 48 h): 352.387 pg/mL/OD neutral red

B1: IL1α: IL1α (Sigma) at 100 ng/mL used as a positive control (protein, UniProt P01583 113-271, looked up)
Interleukin-1 alpha: SAPFSFLSNVKYNFMRIIKYEFILNDALNQSIIRANDQYLTAAALHNLDEAVKFDMGAYKSSKDDAKITVILRISKTQLYVTAQDEDQPVLLKEMPEIPKTITGSETNLLFFWETHGTKNYFTSVAHPNLFIATKQDYWVCLAGGPPSITDFQILENQA
synthesis of KGF by fibroblasts ([10]; positive control, 100 ng/mL): increased
